# Results as given in patent publication US20240360145A1, “PYRIMIDINE-2,4-DIAMINE DERIVATIVES AS WELL AS PREPARATION METHOD THEREFOR AND USE THEREOF” (LISEN THERAPEUTICS, INC., priority 2022, published 2024).
# Experiments:
# [1] = system: small cell lung cancer cell line H446 cells; assay: In vivo antitumor effect in mice bearing small cell lung cancer cell line H446 cells (CDX model)
# Experimental: H446 cells in the logarithmic growth phase were suspended in PBS solution, and then inoculated subcutaneously in the right forelimb of nude mice. The cell density was about 2×10^8 cells/mL, and each mouse was inoculated with 0.1 mL of the cell suspension, for a total of 80 mice. When the subcutaneous tumor grew to range from 50 mm^3 to 100 mm^3, 40 tumor-bearing mice were randomly divided into groups and numbered, and drug administration began.
# (1) Vehicle blank control group: 5% DMSO+20% PEG 300+75% saline (normal saline);
# The cycle repeated twice, and no medication for the final 6 days.
# All tumor-bearing mice were killed after 20 days.
# [2] = system: various cancer cell lines; assay: Cell viability IC50 (CellTiter-Glo), summary over various cancer cell lines; assay type: cell-based
# Experimental: (§1) The cancer cell lines were cultured to the logarithmic growth phase according to conventional culture methods, and the cells were inoculated into a 384-well plate at a density of 2,000 cells/well in a volume of 40 μl/well. The concentrations of added compounds were: […], 1.67 μM, 0.56 μM, 0.19 μM, 0.062 μM, 0.021 μM, 0.0069 μM, 0.0023 μM, 0.00076 μM, and 0 μM. After 72 hours, cell viability was detected using the CellTiter-Glo™ Detection Kit.
# [3] = system: RT-4 (bladder cancer); assay: Cell viability IC50 (CellTiter-Glo), RT-4; assay type: cell-based; details: RT-4, 72 hours
# Experimental: as §1
# [4] = system: LN-18 (glioma); assay: Cell viability IC50 (CellTiter-Glo), LN-18; assay type: cell-based; details: Homo sapiens, LN-18, 72 hours
# Experimental: as §1
# [5] = system: A375 (melanoma); assay: Cell viability IC50 (CellTiter-Glo), A375; assay type: cell-based; details: Homo sapiens, A-375, A375, 72 hours
# Experimental: as §1
# [6] = system: SW620 (colon cancer); assay: Cell viability IC50 (CellTiter-Glo), SW620; assay type: cell-based; details: Homo sapiens, SW-620, SW620, 72 hours
# Experimental: as §1
# [7] = system: KYSE-70 (esophageal cancer); assay: Cell viability IC50 (CellTiter-Glo), KYSE-70; assay type: cell-based; details: Homo sapiens, KYSE-70, 72 hours
# Experimental: as §1
# [8] = system: LT015 primary cells; assay: Cell viability IC50 (CCK-8), primary cells LT015 from small cell lung cancer bronchoscopic biopsy; assay type: cell-based; details: LT015, CCK-8
# Experimental: (1) The tissue blocks obtained from the tumor patients were transferred from the preservation solution to the pre-cooled HBSS buffer containing antibiotics, and the tissue blocks were washed for three times with the pre-cooled HBSS buffer.
# (2) Tissue was sheared on ice with sterile surgical instruments until no obvious tissue blocks are visible to the naked eye, the tissue fluid was collected into a 15 ml centrifuge tube, and this process takes about 5 to 10 minutes.
# (3) Digestive enzymes (collagenase I, collagenase IV and neutral protease being mixed in a ratio of 1:1:1, a concentration of stock solution was 10 mg/ml, diluted with PBS buffer or HBSS buffer, and the use concentration was 1 mg/ml) were added to the centrifuge tube, and after mixing well by pipetting, the centrifuge tube was placed in a 37° C. constant temperature incubator for 1 to 2 hours.
# (4) High-glucose medium was added to the centrifuge tube to stop digestion. After mixing well, the cell precipitate was collected by centrifugation, and resuspended with MBM medium (Advanced DMEM-F12+20 ng/ml bFGF+50 ng/ml EGF+1% ITS-X+2% B27+10 μMY-27632+1% PS). The cell suspension was placed in a Matrigel-coated 24-well plate and cultured for 5 to 7 days. When the cell density in the well plate reaches 80-90%, the cells were sub-cultured into a 6 cm cell culture dish, and when they grew to a density of 80% to 90%, the cells were cryopreserved for preservation.
# (§2) (1) Primary cells from lung cancer pleural effusion within 5 generations were cultured to the logarithmic growth phase. When the confluence reached about 90%, the cells were digested with 0.25% trypsin, and complete culture medium was added to collect the cells. After centrifugation at room temperature, the supernatant was discarded, and the cell precipitate was resuspended with fresh complete culture medium. After counting, the cells were placed at room temperature for later use. The cells were inoculated into a 384-well plate at a density of 2000 cells/well with a volume of 40 μl/well. The wells at the outermost circle of the plate were not inoculated with cells, and instead, added with sterile water to reduce evaporation of the culture medium.
# (§3) (2) After overnight culture of the cells, the medium was discarded, and a fresh medium containing different concentrations of compounds was added at 200 μl/well. The dilution method of the compound was as follows: first the compound with the highest concentration of 10 μM was prepared, and then the compound was diluted for 3 times in sequence. […] At the same time, a blank control group was set up, in which only an equal volume of culture medium was added without adding cells. Five replicate wells were set up for each group. The cells were placed in the incubator for further culture.
# (3) After 72 hours, 8 μl of CCK-8 solution, which was double-diluted with 10 mM PBS, was added to each well, and the cells were shaken and placed in an incubator at 37° C. for further culture for 2 hours.
# (4) The light absorbance value at 450 nm was read using a microplate reader, and the IC50 was calculated according to the absorbance value. The calculation method was the same as above.
# (1) Sample information: PE039, PE052, and PE062 were all primary cell samples from pleural effusion of patients with small cell lung cancer, and LT015 was a primary cell sample from bronchoscopic biopsy of a patient with small cell lung cancer.
# (2) CCK-8 detection was used to detect the IC50 values of different medicaments (compounds).
# [9] = system: NCI-H1975 cells; assay: Cell viability IC50 (MTT), Gefitinib-resistant NCI-H1975 cells; details: Homo sapiens, NCI-H1975, 72 h, read-out: cell viability IC50
# Experimental: 1% sodium pyruvate was additionally added when culturing NCI-H1975 cells. All the cells were cultured in a constant temperature incubator containing 5% CO2 at 37° C.
# (1) The cells were cultured to the logarithmic growth phase. […] After centrifugation at room temperature, the supernatant was discarded, and the cell precipitate was resuspended with fresh complete medium. After counting, the cells were placed at room temperature for later use.
# (2) The cells were inoculated into a 96-well plate at a density of 4,000 cells/well with a volume of 100 μl/well. The wells at the outermost circle of the plate were not inoculated with cells, and instead, added with sterile water to reduce evaporation of the culture medium.
# (3) After overnight culture of the cells, the medium was discarded, and a fresh medium containing different concentrations of compounds was added at 200 μl/well. The dilution method of the compound was as follows: first the compound with the highest concentration of 10 μM was prepared, and then the compound was diluted for 3 times in sequence. […] At the same time, a blank control group was set up, in which only an equal volume of culture medium was added without adding cells. Six replicate wells were set up for each group. The cells were placed in the incubator for further culture.
# (4) After 72 hours, 20 μl of MTT solution (5 mg/ml) sterilized by filtration through a 0.22 m filter membrane was added to each well, and the cells were cultured in an incubator at 37° C. for another 4 hours.
# (6) IC50 of the compounds for different cells was calculated based on the light absorption value of each group. Specifically, the absorbance value under treatment with different concentrations of compounds was first subtracted from the absorbance value of the blank well, and then the absorbance value of the 0 μM group was taken as 100% to calculate the cell survival rate after treatment with different concentrations of compounds. That is, survival rate=((ODexperimental well−ODblank control)/(ODnegative control−ODblank control))×100%. IC50 values were calculated based on the survival rate and concentration of the compound.
# [10] = system: Cal-62 (thyroid cancer); assay: Cell viability IC50 (CellTiter-Glo), Cal-62; assay type: cell-based; details: Homo sapiens, Cal-62, 72 hours
# Experimental: as §1
# [11] = system: primary cells from pleural effusion of patients with small cell lung cancer; assay: Cell viability IC50 (CCK-8), summary over primary cells from pleural effusion of patients with small cell lung cancer; assay type: cell-based; details: Homo sapiens; range over primary cells of patients with small cell lung cancer (Table 4)
# Experimental: as §2
# as §3, with “Five replicate wells were set up for each group. The cells were placed in the incubator for further culture.” left out
# (4) The light absorbance value at 450 nm was read using a microplate reader, and the IC50 was calculated according to the absorbance value. […]
# [12] = system: MCF-7 (breast cancer); assay: Cell viability IC50 (CellTiter-Glo), MCF-7; assay type: cell-based; details: Homo sapiens, MCF7, MCF-7, 72 hours
# Experimental: as §1
# [13] = system: NCI-H1688 cells; assay: Cell viability IC50 (CCK-8), small cell lung cancer cell line H1688; assay type: cell-based; details: NCI-H1688; H1688, CCK-8
# Experimental: Small cell lung cancer cell lines DMS114, NCI-H1688, NCI-H82, NCI-H146, and NCI-H446 cells were cultured in RPMI-1640 medium containing 10% fetal bovine serum and 1% penicillin-streptomycin. All the cells were cultured in a constant temperature incubator containing 5% CO2 at 37° C.
# Small cell lung cancer is a highly heterogeneous malignant tumor, and its clinical treatment is mainly based on traditional chemotherapy (mainly platinum medicaments and etoposide). In order to study the anti-tumor activity of the compounds of the present disclosure in small cell lung cancer, the CCK-8 method was used to investigate the cell viability IC50 of compound 8 for five small cell lung cancer cell lines.
# [14] = system: MDA-MB-231 (breast cancer); assay: Cell viability IC50 (CellTiter-Glo), MDA-MB-231; assay type: cell-based; details: Homo sapiens, MDA-MB-231, 72 hours
# Experimental: as §1
# [15] = system: Hela (cervical cancer); assay: Cell viability IC50 (CellTiter-Glo), Hela; assay type: cell-based; details: Homo sapiens, 72 hours
# Experimental: as §1
compound,measurement,setting,value
"CN1CC2CCC(C1)N2Cc1ccc(Nc2ncc(Cl)c(Nc3ccccc3S(=O)(=O)N(C)C)n2)cc1 [Compound 8, 2-((5-chloro-2-((4-((3-methyl-3,8-diazabicyclo[3.2.1]octan-8-yl)methyl)phenyl)amino)pyrimidin-4-yl)amino)-N,N-dimethylbenzenesulfonamide]",toxicity,"[1]; H446 CDX nude mice, 15 mg/kg, judged from body weight",not significant
same,inhibitory effect on tumor volume growth compared with blank control (FIG. 1),"[1]; H446 CDX nude mice, intraperitoneal injection, 20 days",significantly inhibited the growth of tumor volume
same,animals survived,"[1]; H446 CDX nude mice, intraperitoneal injection, 20 days, compound 8 and TP-0903 15 mg/kg once a day for 13 days, Cisplatin 2.5 mg/kg + Etoposide 4 mg/kg cycles",11 out of 12
same,body weight changes of nude mice (FIG. 2),"[1]; during the drug administration period, recovered rapidly after drug withdrawal",slight decrease in body weight
same,IC50,"[2]; colon cancer, liver cancer, cervical cancer, ovarian cancer, and esophageal cancer",< 200 nM
same,IC50,"[2]; thyroid cancer, breast cancer, bladder cancer, glioma, pancreatic cancer, melanoma, and gastric cancer",< 100 nM
same,IC50,[3],54 nM
same,IC50,[4],7.8 nM
same,IC50,[5],23.3 nM
same,IC50,[6],101 nM
same,IC50,[7],122 nM
same,IC50,[8],6.11 nM
same,IC50,[9],55.2 nM
same,IC50,[10],21.9 nM
same,IC50,[11],2.7 to 59.9 nM
same,IC50,[12],52.8 nM
same,IC50,[13],5.01 nM
same,IC50,[14],49.9 nM
same,IC50,[15],123 nM
